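Results reflect a 48-hour exposure of cells in 96-well plates to compound at five concentrations. At the TGI there is no net growth.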 Where a SMILES comes first, the peptide text is derived from it. Peptide text beside a SMILES is read from it. [ ]: non-standard residue; d: D form. The star is where a group is joined. * marks the point of attachment. Phe(4-NO2) = N[CH](Cc1ccc([N+](=O)[O-])cc1)C(=O)O; Boc = CC(C)(C)OC(=O)*; OtBu = CC(C)(C)O*
Legend:
Assay in all cases: growth of human tumour cells (NCI), 48 h
PC-3 prostate = tested on: PC-3 prostate
OVCAR-4 ovarian = tested on: OVCAR-4 ovarian
MDA-MB-231 breast = tested on: MDA-MB-231 breast
OVCAR-3 ovarian = tested on: OVCAR-3 ovarian
SF-539 CNS = tested on: SF-539 CNS
M14 melanoma = tested on: M14 melanoma
HOP-92 NSCLC = tested on: HOP-92 NSCLC
NCI/ADR-RES ovarian = tested on: NCI/ADR-RES ovarian
SK-MEL-2 melanoma = tested on: SK-MEL-2 melanoma
HCC-2998 colon = tested on: HCC-2998 colon

Structure (SMILES)	TGI (PC-3 prostate) [µM]	TGI (OVCAR-4 ovarian) [µM]	TGI (MDA-MB-231 breast) [µM]	TGI (OVCAR-3 ovarian) [µM]	TGI (SF-539 CNS) [µM]	TGI (M14 melanoma) [µM]	TGI (HOP-92 NSCLC) [µM]	TGI (NCI/ADR-RES ovarian) [µM]	TGI (SK-MEL-2 melanoma) [µM]	TGI (HCC-2998 colon) [µM]
C/C(=C/CC[C@](C)(OC1OC(CO)C(O)C(O)C1O)[C@H]1CC[C@]2(C)[C@@H]1CC[C@@H]1[C@@]3(C)CC[C@H](O)C(C)(C)[C@@H]3C[C@H](O)[C@]12C)CO (stereo partly specified)	98.2	> 100	91.5	79.7	35.6	> 100	> 100	> 100		
COC(=O)c1ccc(OCc2ccc3nc(-c4ccccc4)c(Cl)nc3c2)cc1	> 100	> 100	60.2	> 100	> 100	> 100	> 100	> 100	> 100	> 100
CCOc1cc(C=O)ccc1O	> 100	> 100	> 100	> 100	> 100	> 100	> 100	> 100	> 100	> 100
Cc1cc(S(=O)(=O)NC(=NCC(=O)NN)NN)c(S)cc1Cl	> 10	> 10	> 10	> 10	> 10	> 10	> 10	> 10	> 10	> 10
c1ccc(C/C(=N\Nc2nc3ccccc3o2)c2ccccn2)cc1	5.68		16.7	0.0301	1.21	0.992	0.268	0.0824	20.7	
COC(=O)C(Cc1ccc([N+](=O)[O-])cc1)NC(=O)C(CC(=O)OC(C)(C)C)NC(=O)OC(C)(C)C (stereo unspecified) (Boc-Asp(OtBu)-[Phe(4-NO2)]-OMe; configuration not given here)	> 100	> 100	68.4	> 100	> 100	> 100	> 100	> 100	> 100	> 100
Cn1c(=O)c2[nH]c(N/N=C3/SCC(=O)N3Cc3ccccc3)nc2n(C)c1=O	> 100	> 100	> 100	> 100	> 100	> 100	87.7	> 100	> 100	> 100
COCCCN1C(=O)C2c3[nH]c4ccccc4c3C3CCC(C(C)(C)C)CC3C2C1=O (stereo unspecified)	50.8	> 100	56.3	35.9	70.2	39		> 10		54.6
CC(=O)Nc1ccc(C(=O)N2N=C(C)/C(=C/c3cccc(O)c3)C2=O)cc1		> 100		> 100	> 100	> 100			> 100	> 100
CSc1nc2c(ncn2C2OCC(O)C(O)C2O)c(=O)[nH]1 (stereo unspecified)		> 100		> 100	> 100		> 100	> 100	> 100	> 100
CSCCC(NC(=O)C(CC(C)C)NC(=O)CNC(=O)OC(C)(C)C)C(=O)N(C)C (stereo not drawn) (Boc-Gly-Leu-Met-NMe2; configuration not given here)	> 100	> 100	> 100		> 100	> 100	> 100	> 100	> 100	
Cc1c(-c2coc(-c3ccc(Cl)cc3)n2)c(=O)n(-c2ccccc2)n1C		> 100		> 100	> 100	> 100	> 100		> 100	> 100
COc1cc(C2S/C(=C/c3ccccc3)C(=O)N2c2ccc(Cl)cc2)cc(OC)c1OC (stereo unspecified)	> 84.4	> 100	> 96.6	> 100		> 46	> 52	> 100	> 30.2	> 100
C=CCOn1c(C=C)nc2c(C)cccc21	12.1	24	14.8	7.51		12.3	34.4		4.79	17.8
Cc1cccc(N2CCN(S(=O)(=O)c3ccc(Cl)cc3)C2=N)c1C			> 100		> 100	> 100		> 100		
Cc1nn(C(=O)c2ccccc2O)c2c1C(c1ccc(O)cc1)SC(N)=N2 (stereo unspecified)	> 10	> 8.37	> 10	> 6.89	> 2.47	> 10		> 10	> 10	> 10
O=C1N2CCc3c([nH]c4ccccc34)C23CC2CCCC12S3 (stereo unspecified)	> 50	> 50	> 50	> 50	> 50	> 50	> 50	43.9	> 50	
CC(C)CC1c2[nH]c3ccccc3c2C[C@H]2C(=O)NC(COC(C)(C)C)C(=O)N12 (stereo partly specified)	55.1	> 100	38.8	16.3		46.7	74.7	56.7	38.8	
COc1ccc(S(=O)(=O)Nc2ccc(-c3csc(N4C(=O)/C(=C/C=C\c5ccccc5)N=C4c4ccccc4)n3)cc2)cc1Cl	> 100	88.9	51.6	> 100	> 100	83.6	41.1	73.8	56.3	
Cc1[nH]c(=O)nc(N/N=C/c2ccc(O)cc2)c1C(=O)Nc1ccc(Cl)cc1		> 100		> 100	> 100	> 100			> 100	> 100
COc1cc(CC(=O)c2ccc3c(c2)OCO3)cc(OC)c1OC		> 100		> 100	> 100	> 100	> 100		> 100	> 100
Cc1ccc(C2=Nn3c(nc4sc(-c5ccccc5)cc4c3=O)SC2)cc1	> 100	> 100	> 100	> 100	> 100		> 100	> 100		> 100
COc1ccc(NC(=O)C2=C(SC)C(=O)N=C2N)cc1	> 100	> 100	> 100				> 100	> 100	> 100	> 100
